{Fluorescein} = fluorescein label (binding site for anti-fluorescein Fab-HRP); {Biotin} = biotin (capture probe anchor)
Assays:
bacterial 16S rRNA [1] = assay: Sensor validation using control ATCC bacterial strains, UTI Chip with 7-detector-probe mixture (Example 3); format: binding
Excerpt: The following American Type Culture Collection (ATCC) strains were obtained from the UCLA Clinical Microbiology Laboratory: Escherichia coli strain 35218, Klebsiella pneumoniae strain 13883, K. oxytoca strain 49131, Enterobacter aerogenes strain 13048. E. cloacae strain 13047, Proteus mirabilis strain 12453, Pseudomonas aeruginosa strain 10145, Citrobacter freundii strain 8090, and Enterococcus faecalis strain 49532. Additional strains of uropathogenic bacteria were obtained from the UCLA Uropathogen Specimen Bank: E. coli strain Ec103, K. pneumoniae strain Kp295, P. mirabilis strain Pm278, P. aeruginosa strain Pa3, and E. faecalis strain Eo111. Isolation of uropathogens from clinical urine specimens was approved by the UCLA and VA Greater Los Angeles Healthcare System institutional Review Boards. The identity of all clinical strains was determined by standard biochemical assays and verified by 16S rRNA gene sequencing. The 16S rRNA genes were PCR amplified with universal primers 8UA and 1485B.^17 The amplified product was purified by using the QIAquick PCR purification kit (QIAGEN, Inc., Chatsworth, Calif.) and directly sequenced using primer pairs 8UA/907B and 774A/1485B as described previously.^18 DNA sequencing was performed at the W. M. Keck Foundation Biotechnology Resource Laboratory (New Haven, Conn.). Isolates were inoculated into Brucella broth with 15% glycerol (BBL, Maryland) and were stored at −70° C. Bacteria were grown overnight in Luria Broth (LB), inoculated into LB and grown to logarithmic phase as measured by OD600. Concentration of the logarithmic phase specimens was determined by serial plating, typically yielding 10^7-10^8 bacteria/ml.
Logarithmic phase bacterial cells were concentrated by centrifugation at 10.000 rpm for 5 min, Lysis of bacterial cells was performed by addition of 10 μl of one or more of the following […]. 0.1% Triton X-100 in 20 mM Tris-HCl, pH 8.0, 2 mM EDTA and 1 mg/ml lysozyme (Sigma). After incubation at room temperature, 50 μl of the detector probe (0.25 μM) in 2.5% bovine serum albumin (Sigma)—1 M phosphate buffer, pH 7.4, was added to the bacterial lysate. The detector probe/bacterial lysate mixture was incubated for 10 min at 65° C. to allow hybridization of the detector probe to target rRNA. 4 μl of the bacterial lysate/detector probe mixture was deposited on each of the working electrodes in the sensor array. The sensor array was incubated for 10 min at 65° C. in a humidified chamber. After washing and drying, 4 μl of 0.5 U/mil anti-fluorescein horseradish peroxidase (HRP) Fab conjugate (Roche, diluted in 0.5% casein in 1 M sodium phosphate buffer, pH 7.4) were deposited on each of the working electrodes for 10-15 min. After washing and drying, a prefabricated plastic well manifold (GeneFluidics) was bonded to the sensor array. 50 μl of HRP substrate solution (K-Blue Aqueous TMB, Neogen, Lexington, Ky.) was placed on each of the sensors in the array so as to cover all three of the electrodes. Measurements were immediately and simultaneously taken for all 16 sensors. The entire assay protocol was completed within 45 min from the initiation of bacterial lysis. Amperometric current vs. time was measured using a multichannel potentiostat (GeneFluidics). The voltage was fixed at −200 mV (vs. reference), and the electroreduction current was measured at 60 sec after the HRP redox reaction reached steady state. Negative controls were included in each experiment in which 1 M phosphate buffer, pH 7.4, was used as the target instead of bacterial lysate. All samples were analyzed in duplicate.
Experiments were performed on ATCC strains to verify probe specificity using a 16-sensor array “UTI chip” in which the UNI782C, EB1176C, EC434C, KE434C, PM187C, PA102C, and EF207C 5′-biotinylated capture probes (defined in Table 1) were tested in duplicate. The two remaining sensors in the array served as negative controls (using capture probe UNI782C without bacterial lysate). […]

Enterococcus 16S rRNA = assay: Amperometric detection of bacterial 16S rRNA, 65° C. hybridization (Examples 2, 3); format: binding, Enterococcus faecalis; details: for sensitivity of electrochemical sensor assay (cells detected): five-fold serial dilutions of enterococcal cells, capture probe EF207C, EF165D 5′-fluorescein, EF171D 3′-fluorescein
E. coli 16S rRNA [2] = assay: as above; format: binding, Escherichia coli; details: for sensitivity of electrochemical sensor assay (cells detected): five-fold serial dilutions of E. coli cells, capture probe EC434C, 5′-fluorescein 6 nt gap vs 3′-fluorescein 0 nt gap
[3] = Double-labeled Test Probes on the electrochemical sensor (no hybridization)
Protocol: FIG. 7. The effect of oligonucleotide length on electrochemical signal intensity. Single stranded oligonucleotides (‘Test Probes’) ranging from 20-60 bps in length modified at the 5′- and 3′-ends with biotin and fluorescein, respectively, were tested to examine the effect of probe length on signal intensity. Hybridization was not required in these experiments because, as shown in the inset, the double-labeled probes served as a bridge between fluorescein and biotin on the electrochemical sensor surface. The highest signal output was obtained using the 40 bp probe, yielding a lower limit of detection at a concentration of 10 pM. Background current output was measured using negative control (NC) sensors to which no cell lysates were applied.
Sensor characterization and surface functional layer preparation. Microfabricated electrochemical sensor arrays with an alkanethiolate self-assembled monolayer (SAM) were obtained from GeneFluidics (Monterey Park, Calif.). […]
Amperometric Detection of bacterial 16S rRNA. […] Amperometric current vs. time was measured using a multichannel potentiostat (GeneFluidics). The voltage was fixed at −200 mV (vs. reference), and the electroreduction current was measured at 60 sec after the HRP redox reaction reached steady state. All samples were analyzed in duplicate. […] Positive signals are determined by comparing the signals with the background using paired T test. […]

bacterial 16S rRNA [4] = assay: Species specificity of short probe pairs, 16 sensor array at ambient temperature (Example 5); format: binding
E. coli 16S rRNA [5] = assay: Amperometric detection of E. coli 16S rRNA with short probes at ambient temperature (Example 5); format: binding, Escherichia coli; details: for sensitivity (threshold): fivefold dilutions of E. coli cells
[6] = 3′-fluorescein and continuity of hybridization sites vs 5′-fluorescein with gap

## GGGTTCATCCGATAGTGCAAGGTCCGAAGAGCCCC (DNA GGGTTCATCCGATAGTGCAAGGTCCGAAGAGCCCC; chemistry not given here; listed as Proteus mirabilis) [PM188C]
Bacterial 16S rRNA [1]
  capture probe specificity: specific for P. mirabilis

## GTCCATCCATCAGCGACACCCGAAAGCGCCTTTCA (DNA GTCCATCCATCAGCGACACCCGAAAGCGCCTTTCA; sugars by position and backbone not given here; listed as Enterococcus sp.) [EF165D]
Enterococcus 16S rRNA
  sensitivity of electrochemical sensor assay (cells detected): 232,000 cells

## GTCAATCGNCRAGGTTATTAACCTYAHCGCCTTCC (DNA GTCAATCGMCRAGGTTATTAACCTYAHCGCCTTCC; chemistry not given here; listed as Klebsiella pneumoniae) [KE434C]
Bacterial 16S rRNA [1]
  capture probe specificity: positive for all Enterobacteriaceae except E. coli

## CCGCGGGTCCATCCATCAGCGACACCCGAAAGCGC (DNA CCGCGGGTCCATCCATCAGCGACACCCGAAAGCGC; sugars by position and backbone not given here; further chemistry not fully specified; listed as Enterococcus sp.) [EF171D]
Enterococcus 16S rRNA; [6]
  improvement in sensitivity: 24-25 fold
Enterococcus 16S rRNA
  sensitivity of electrochemical sensor assay (cells detected): 9,400 cells

## CGGACTACGACRYACTTTATGAGGTCCGCTTGCTC (DNA CGGACTACGACRYACTTTATGAGGTCCGCTTGCTC; chemistry not given here; listed as Enterobacter sp.) [EB1172C]
Bacterial 16S rRNA [1]
  capture probe specificity: positive for all members of the family Enterobacteriaceae tested and negative for P. aeruginosa and E. faecalis

## CCCACTTTCTCCCTCAGGACGTATGCGGTATTAGC (DNA CCCACTTTCTCCCTCAGGACGTATGCGGTATTAGC; chemistry not given here; listed as Pseudomonas aeruginosa) [PA111C]
Bacterial 16S rRNA [1]
  capture probe specificity: P. aeruginosa

## TCCCCGCTGAAAGTACTTTACAACCCGAAGGCCTT (DNA TCCCCGCTGAAAGTACTTTACAACCCGAAGGCCTT; sugars by position and backbone not given here; further chemistry not fully specified; listed as Escherichia coli) [EC399D]
E. coli 16S rRNA [2]; [6]
  improvement in sensitivity: 24-25 fold
E. coli 16S rRNA [2]
  sensitivity of electrochemical sensor assay (cells detected): 260 cells

## TTGGTGAGCCGTTACCTCACCAACTAGCTAATGCA (DNA TTGGTGAGCCGTTACCTCACCAACTAGCTAATGCA; chemistry not given here; listed as Enterococcus sp.) [EF207C]
Bacterial 16S rRNA [1]
  capture probe specificity: E. faecalis

## CATCGTTTACGGCGTGGACTACCAGGG (DNA CATCGTTTACGGCGTGGACTACCAGGG; chemistry not given here) [UNI782C]
Bacterial 16S rRNA [1]
  capture probe specificity: detected all bacterial uropathogens tested

## GTCAATGAGCAAAGGTATTAACTTTACTCCCTTCC (DNA GTCAATGAGCAAAGGTATTAACTTTACTCCCTTCC; chemistry not given here; listed as Escherichia coli) [EC434C]
Bacterial 16S rRNA [1]
  capture probe specificity: positive for E. coli

## CGTCAATGAGCAAAGGTATTACTCCCTTCCTCCCCGCTGA (DNA CGTCAATGAGCAAAGGTATTACTCCCTTCCTCCCCGCTGA; DNA, 5' {Biotin}, 3' {Fluorescein}, backbone and methylation of C not given here) [40-mer]
[3]; 5′-biotin, 3′-fluorescein Test Probe
  lower limit of detection: 10 pM
[3]; across a range of concentrations
  signal relative to 20mer and 60mer Test Probes: higher signals

## CTGAAAGTACTTTACAACCCGAAGGCCTTCTTCAT (DNA CTGAAAGTACTTTACAACCCGAAGGCCTTCTTCAT; DNA, backbone and methylation of C not given here; listed as Escherichia coli) [EC393D]
E. coli 16S rRNA [2]
  sensitivity of electrochemical sensor assay (cells detected): 6,200 cells

## EC439C (15 mer)/EC424D (15 mer): E. coli probe pair, SEQ ID NO: 44 and 45 (DNA 1 TATTAACTTTACTCC; DNA 2 CTTCCTCCCCGCTGA; chemistry not given here; listed as Escherichia coli)
Bacterial 16S rRNA [4]; ambient temperature
  cross-reactivity with P. aeruginosa: Weak cross-reactivity
Bacterial 16S rRNA [4]; ambient temperature hybridization
  Species detected: Ec
Bacterial 16S rRNA [4]; ambient temperature, * cross-reactivity at a level significantly less than with the target species
  Species not detected: Ea, Ef, Kp, Pa*, Pm
E. coli 16S rRNA [5]
  mean current: 1605 negative nanoamperes
E. coli 16S rRNA [5]; listed as 15mer capture and detector probes
  sensitivity (threshold): approximately 250 cells
E. coli 16S rRNA [5]; listed as E. coli-specific 15mer probe pairs
  sensitivity (threshold): approximately 173 cells

Reference: patent US7763426B2, “Probes and methods for detection of Escheridia coli and antibiotic resistance” (priority 2004, dated 2010)
